Data on nine compounds can be found in ChEMBL document CHEMBL5230154, “Chemical probe of AHL modulators on quorum sensing in Gram-Negative Bacteria and as antiproliferative agents: A review” (Eur J Med Chem, 2021).

SMILES strings stand for the structures.

The nature of experiment [1]: Antagonist activity against quorum sensing system in Pseudomonas aeruginosa PAO1 transfected with rhlA-lacZ reporter gene assessed as inhibition of beta-galactosidase activity incubated for 24 hrs by elastin-Congo red assay.
Experiment [2] can be described thus: Antagonist activity against quorum sensing system in Pseudomonas aeruginosa PAO1 transfected with lasB-lacZ reporter gene assessed as inhibition of beta-galactosidase activity incubated for 24 hrs by elastin-Congo red assay.
Experiment [3] has as its system Pseudomonas aeruginosa. Kind of experiment: Antagonist activity against quorum sensing system in Pseudomonas aeruginosa PAO-JP2 (plasI-LVAgfp) assessed as inhibition of 3-oxo-C12 HSL induced GFP expression at 100 uM incubated for 6 hrs in presence of 100 uM of 3-oxo-C12-D10 by fluorescence analysis. The settings on record: filed as antagonist.
The test system of experiment [4] is Pseudomonas aeruginosa. Kind of experiment: Antagonist activity against quorum sensing system in Pseudomonas aeruginosa PAO-JP2 (plasI-LVAgfp) assessed as inhibition of 3-oxo-C12 HSL induced GFP expression at 100 uM incubated for 6 hrs in presence of 10 uM of 3-oxo-C12-D10 by fluorescence analysis. The settings on record: filed as antagonist.
For experiment [5], the system named is Pseudomonas aeruginosa. Kind of experiment: Antagonist activity against quorum sensing system in Pseudomonas aeruginosa PAO-JP2 (plasI-LVAgfp) assessed as inhibition of 3-oxo-C12 HSL induced GFP expression at 100 uM incubated for 6 hrs in presence of 50 uM of 3-oxo-C12-D10 by fluorescence analysis. The settings on record: filed as antagonist.
Experiment [6] has as its system Pseudomonas aeruginosa. Kind of experiment: Inhibition of quorum sensing system in Pseudomonas aeruginosa MH602 expressing PlasB::gfp assessed as inhibition of GFP fluorescence expression at 62.5 uM incubated for 15 hrs by fluorescence microplate reader analysis.
In experiment [7] the test system is Pseudomonas aeruginosa. Kind of experiment: Inhibition of quorum sensing system in Pseudomonas aeruginosa MH602 expressing PlasB::gfp assessed as inhibition of GFP fluorescence expression at 250 uM incubated for 15 hrs by fluorescence microplate reader analysis.
Experiment [8] relates to Pseudomonas aeruginosa. Kind of experiment: Antibiofilm activity against Pseudomonas aeruginosa PAO1 NCTC 10332 assessed as inhibition of biofilm formation incubated for 24 hrs by crystal violet staining based assay. It counts as functional, organism-based. The settings on record: PAO1 NCTC 10332, 24 h.
Experiment [9] in a line: Inhibition of quorum sensing system in Pseudomonas aeruginosa PA14 assessed as inhibition of pyocyanin production by UV-vis spectrophotometric assay.
Experiment [10] can be described thus: Inhibition of quorum sensing system in Pseudomonas aeruginosa PAO1 assessed as inhibition of pqsR expression incubated for 4 hrs by RT-PCR analysis.
The test system of experiment [11] is Pseudomonas aeruginosa. The experiment in a line: Anti-motility activity against Pseudomonas aeruginosa PAO1 NCTC 10332 assessed as reduction in swimming at 50 uM and measured after 18 hr. The format is functional. Details: scale not given: the % may be the effect or the level left.
Experiment [12] in a line: Inhibition of quorum sensing system in Pseudomonas aeruginosa PAO1 assessed as inhibition of RhlR expression incubated for 4 hrs by RT-PCR analysis.
Experiment [13] concerns Pseudomonas aeruginosa. The experiment in a line: Anti-motility activity against Pseudomonas aeruginosa PAO1 NCTC 10332 assessed as reduction in swarming at 50 uM and measured after 16 hr by swarming assay. It counts as functional. Details: scale not given: the % may be the effect or the level left.
For a further experiment, the system named is Serratia marcescens. The experiment in a line: Antibiofilm activity against Serratia marcescens ATCC 27117 assessed as inhibition of biofilm formation incubated for 24 hrs by crystal violet staining based assay. It counts as functional, organism-based. The settings on record: ATCC 27117, 24 h.
A short description of experiment [14]: Inhibition of quorum sensing system in Pseudomonas aeruginosa PAO1 assessed as decrease in lasI expression at 15 uM incubated for 12 hrs by real-time fluorescent quantitative PCR analysis.
The nature of experiment [15]: Inhibition of quorum sensing system in Pseudomonas aeruginosa PAO1 assessed as decrease in lasA expression at 15 uM incubated for 12 hrs by real-time fluorescent quantitative PCR analysis.
The nature of experiment [16]: Inhibition of quorum sensing system in Pseudomonas aeruginosa PAO1 assessed as inhibition of rhamnolipid production at 15 uM incubated for 12 hrs by spectrophotometric assay.
Experiment [17] in a line: Inhibition of quorum sensing system in Pseudomonas aeruginosa PAO1 assessed as decrease in rhlR expression at 15 uM incubated for 12 hrs by real-time fluorescent quantitative PCR analysis.
A short description of experiment [18]: Inhibition of quorum sensing system in Pseudomonas aeruginosa PAO1 assessed as decrease in pqsA expression at 15 uM incubated for 12 hrs by real-time fluorescent quantitative PCR analysis.
The nature of experiment [19]: Inhibition of quorum sensing system in Pseudomonas aeruginosa PAO1 assessed as inhibition of pyocyanin production at 15 uM incubated for 12 hrs by spectrophotometric assay.
Experiment [20] is described as follows: Inhibition of quorum sensing system in Pseudomonas aeruginosa PAO1 assessed as inhibition of elastase production at 15 uM incubated for 12 hrs by Congo red dye based spectrophotometric assay.
Experiment [21] deals with Pseudomonas aeruginosa. Kind of experiment: Inhibition of biofilm formation in Pseudomonas aeruginosa PAO1 incubated for 12 hrs by crystal violet staining based analysis. The format is functional.
Experiment [22] is described as follows: Inhibition of quorum sensing system in Pseudomonas aeruginosa PAO1 assessed as decrease in pqsR expression at 15 uM incubated for 12 hrs by real-time fluorescent quantitative PCR analysis.
The test system of experiment [23] is Pseudomonas aeruginosa. Kind of experiment: Inhibition of Pseudomonas aeruginosa MH602 harboring PlasB::gfp(ASV) reporter assessed as decrease in GFP expression at 250 uM incubated for 22 hrs by fluorescence microplate reader analysis.
Experiment [24] has as its system Escherichia coli. The experiment in a line: Inhibition of Escherichia coli MT102 harbouring pJBA132 expressing Gfp assessed as inhibition of GFP fluorescence expression at 250 uM incubated for 15 hrs by fluorescence microplate reader analysis.
For experiment [25], the system named is Escherichia coli. The experiment in a line: Inhibition of Escherichia coli MT102 harbouring pJBA132 expressing Gfp assessed as inhibition of GFP fluorescence expression at 62.5 uM incubated for 15 hrs by fluorescence microplate reader analysis.
For experiment [26], the system named is Escherichia coli. Kind of experiment: Inhibition of Escherichia coli MT102 harbouring pJBA132 expressing Gfp assessed as inhibition of GFP fluorescence expression at 125 uM incubated for 15 hrs by fluorescence microplate reader analysis.

Turning to `CCCCCCCCCC(=O)NC1CCCC1` [N-CYCLOPENTYLDECANAMIDE], the figures for the IC50 in experiment [1] and in experiment [2] were 90 µM and 80 µM, respectively.

Regarding `CCCCCCCCCC(=O)CC(=O)Nc1ccccc1O`, the inhibition worked out at 90% with Pseudomonas aeruginosa [3], 60% in the experiment with Pseudomonas aeruginosa [4] and 80% with Pseudomonas aeruginosa [5].

Consider `O=C1C(Cl)=C(Cl)CN1CCc1ccc(O)cc1`, for which the inhibition in the experiment with Pseudomonas aeruginosa [6] came to 32.1%; with Pseudomonas aeruginosa [7], 74%.

As to `Clc1ccc2c(NCCCCCCCCNCc3cc4ccccc4o3)ccnc2c1`, the half-maximal inhibitory concentration (IC50) in the experiment on Pseudomonas aeruginosa [8] amounted to 50 µM; in [9], 12 µM; in experiment [10], 25 µM; in experiment [12], 40 µM. The Activity with Pseudomonas aeruginosa [11] and with Pseudomonas aeruginosa [13] was 40% throughout.

`NCCCCCCCCCCCCNc1ccnc2cc(C(F)(F)F)ccc12`: the IC50 with Pseudomonas aeruginosa [8] and in the experiment on Serratia marcescens was 63 µM in each case.

On to `Clc1ccc2c(NCCCCCCCCNCc3cc4ccccc4s3)ccnc2c1`, for which the IC50 in experiment [9] is 25 µM; in experiment [10] it was 30 µM. For the same compound, the Activity in the experiment on Pseudomonas aeruginosa [11] and in the experiment with Pseudomonas aeruginosa [13] was 40% throughout.

On to `O=C(CSC(=S)N[C@H]1CCOC1=O)NC(=O)Nc1cccc2ccccc12`, for which the inhibition in [14] came to 38.9%; in experiment [15] it was 71%; in experiment [16] it was 20.8%; in experiment [17] it was 55.5%; in experiment [18], 67.7%; in [19] it was 33%. The figures for the inhibition in experiment [20] and in [22] were 14.3% and 47.9%, respectively. The “inhibition (INH)” value with Pseudomonas aeruginosa [21] was 35.3%.

On to `NCCCCCCCCCCCCNc1ccnc2cc(Cl)ccc12`, for which the IC50 worked out at 69 µM with Pseudomonas aeruginosa [8], 69 µM in the experiment with Serratia marcescens and 2.5 µM in experiment [9].

As to `O=C1C(=O)N(C(=O)CCl)c2ccc([N+](=O)[O-])cc21`, the inhibition in the experiment on Pseudomonas aeruginosa [23] is 57.3%; in the experiment with Escherichia coli [24] it was 65.8%; with Escherichia coli [25], 48.5%; with Escherichia coli [26], 60.8%.
